Species: Rattus norvegicus
Experiment: Open TG-GATES - Regimen: Single
Assay type: toxicity, organism-based, Sprague-Dawley
Design: regimen Single, gender Male, age 6 weeks
Conditions: in vivo, po, 0 mg/kg, route gavage, dose level Control; for APTT / Bas / Eos / Fbg / Hb / Ht / Lym / MCH / MCHC / MCV / Mono / Neu / PT / Plat / RBC / Ret / WBC: tissue Blood; for KIDNEY_L / KIDNEY_R / KIDNEY_TOTAL: tissue Kidney; for LIVER: tissue Liver; for A/G / ALP / ALT / AST / BUN / CRE / Ca / Cl / DBIL / GLC / IP / K / LDH / Na / PL / RALB / TBIL / TC / TG / TP / gamma-GTP: tissue Plasma

Compound O=C(OC[C@H]1O[C@@H](OC(=O)c2cc(O)c(O)c(OC(=O)c3cc(O)c(O)c(O)c3)c2)[C@H](OC(=O)c2cc(O)c(O)c(OC(=O)c3cc(O)c(O)c(O)c3)c2)[C@@H](OC(=O)c2cc(O)c(O)c(OC(=O)c3cc(O)c(O)c(O)c3)c2)[C@@H]1OC(=O)c1cc(O)c(O)c(OC(=O)c2cc(O)c(O)c(O)c2)c1)c1cc(O)c(O)c(OC(=O)c2cc(O)c(O)c(O)c2)c1 [TANNIC ACID] has a TERMINAL_BW (3 h) of 189.9 g, an APTT (3 h) of 16.1 s and a Bas (3 h) of 0%. For the same compound, the Eos (3 h) was 0.6%, the Fbg (3 h) was 216.2 mg/dL and the Hb (3 h) was 12.9 g/dL. The Ht (3 h) was 38.5%, the Lym (3 h) was 79.4% and the MCH (3 h) was 22.6 pg. The MCHC (3 h) was 33.6%, the MCV (3 h) was 67.3 fL and the Mono (3 h) was 5%. For the same compound, the Neu (3 h) was 15.2%, the PT (3 h) was 11.7 s and the Plat (3 h) was 106.7 x10_4/uL. It also gave an RBC (3 h) of 573 x10_4/ul, a Ret (3 h) of 10.3% and a WBC (3 h) of 111 x10_2/uL. For the same compound, the KIDNEY_L (3 h) was 0.9 g, the KIDNEY_R (3 h) was 0.9 g and the KIDNEY_TOTAL (3 h) was 1.8 g. For the same compound, the LIVER (3 h) was 9.5 g, the A/G (3 h) was 2.1 and the ALP (3 h) was 747.6 IU/L. It also gave an ALT (3 h) of 34.4 IU/L, an AST (3 h) of 68 IU/L and a BUN (3 h) of 17 mg/dL. For the same compound, the CRE (3 h) was 0.4 mg/dL, the Ca (3 h) was 11 mg/dL and the Cl (3 h) was 103.2 meq/L. For the same compound, the DBIL (3 h) was 0.016 mg/dL, the GLC (3 h) was 194.4 mg/dL and the IP (3 h) was 10.3 mg/dL. It also gave a K (3 h) of 4.8 meq/L, an LDH (3 h) of 74.4 IU/L and a Na (3 h) of 139.4 meq/L. The PL (3 h) was 141.4 mg/dL, the RALB (3 h) was 3.6 g/dL and the TBIL (3 h) was 0.5 mg/dL. It also gave a TC (3 h) of 74.8 mg/dL, a TG (3 h) of 70.6 mg/dL and a TP (3 h) of 5.4 g/dL. For the same compound, the gamma-GTP (3 h) was 1.4 IU/L, the TERMINAL_BW (6 h) was 186.3 g and the APTT (6 h) was 15.9 s. For the same compound, the Bas (6 h) was 0%, the Eos (6 h) was 0.8% and the Fbg (6 h) was 227 mg/dL. For the same compound, the Hb (6 h) was 13.1 g/dL, the Ht (6 h) was 39.1% and the Lym (6 h) was 75.2%. The MCH (6 h) was 22.1 pg, the MCHC (6 h) was 33.6% and the MCV (6 h) was 65.6 fL. For the same compound, the Mono (6 h) was 7.8%, the Neu (6 h) was 16.4% and the PT (6 h) was 12.1 s. The Plat (6 h) was 117.4 x10_4/uL, the RBC (6 h) was 596 x10_4/ul and the Ret (6 h) was 10.1%. It also gave a WBC (6 h) of 109.6 x10_2/uL, a KIDNEY_L (6 h) of 0.9 g and a KIDNEY_R (6 h) of 0.9 g. It also gave a KIDNEY_TOTAL (6 h) of 1.8 g, an LIVER (6 h) of 8.6 g and an A/G (6 h) of 2. For the same compound, the ALP (6 h) was 831.4 IU/L, the ALT (6 h) was 34.4 IU/L and the AST (6 h) was 61.8 IU/L. The BUN (6 h) was 11.2 mg/dL, the CRE (6 h) was 0.5 mg/dL and the Ca (6 h) was 10.8 mg/dL. The Cl (6 h) was 105.2 meq/L, the DBIL (6 h) was 0.028 mg/dL and the GLC (6 h) was 188 mg/dL. For the same compound, the IP (6 h) was 10.1 mg/dL, the K (6 h) was 4.7 meq/L and the LDH (6 h) was 83 IU/L. It also gave a Na (6 h) of 139.4 meq/L, a PL (6 h) of 131.8 mg/dL and an RALB (6 h) of 3.6 g/dL. For the same compound, the TBIL (6 h) was 0.4 mg/dL, the TC (6 h) was 79.2 mg/dL and the TG (6 h) was 40.6 mg/dL. For the same compound, the TP (6 h) was 5.4 g/dL, the gamma-GTP (6 h) was 2.2 IU/L and the TERMINAL_BW (9 h) was 184.6 g. It also gave an APTT (9 h) of 16.7 s, a Bas (9 h) of 0% and an Eos (9 h) of 1.2%. For the same compound, the Fbg (9 h) was 213 mg/dL, the Hb (9 h) was 12.9 g/dL and the Ht (9 h) was 38.4%. The Lym (9 h) was 76.8%, the MCH (9 h) was 22.2 pg and the MCHC (9 h) was 33.6%. It also gave an MCV (9 h) of 65.9 fL, a Mono (9 h) of 8% and a Neu (9 h) of 14.4%. The PT (9 h) was 12.1 s, the Plat (9 h) was 123.3 x10_4/uL and the RBC (9 h) was 583.4 x10_4/ul. For the same compound, the Ret (9 h) was 10.2%, the WBC (9 h) was 92.1 x10_2/uL and the KIDNEY_L (9 h) was 0.9 g. It also gave a KIDNEY_R (9 h) of 0.9 g, a KIDNEY_TOTAL (9 h) of 1.7 g and an LIVER (9 h) of 7.7 g. For the same compound, the A/G (9 h) was 1.9, the ALP (9 h) was 669.8 IU/L and the ALT (9 h) was 34.4 IU/L. It also gave an AST (9 h) of 60 IU/L, a BUN (9 h) of 12.8 mg/dL and a CRE (9 h) of 0.4 mg/dL. The Ca (9 h) was 10.5 mg/dL, the Cl (9 h) was 105.4 meq/L and the DBIL (9 h) was 0.062 mg/dL. For the same compound, the GLC (9 h) was 195.8 mg/dL, the IP (9 h) was 10.8 mg/dL and the K (9 h) was 4.9 meq/L. For the same compound, the LDH (9 h) was 72.2 IU/L, the Na (9 h) was 137 meq/L and the PL (9 h) was 138.6 mg/dL. For the same compound, the RALB (9 h) was 3.6 g/dL, the TBIL (9 h) was 0.4 mg/dL and the TC (9 h) was 81.4 mg/dL. It also gave a TG (9 h) of 35.2 mg/dL, a TP (9 h) of 5.5 g/dL and a gamma-GTP (9 h) of 2.6 IU/L. It also gave a TERMINAL_BW (24 h) of 197.9 g, an APTT (24 h) of 16.7 s and a Bas (24 h) of 0%. The Eos (24 h) was 1.2%, the Fbg (24 h) was 218.4 mg/dL and the Hb (24 h) was 12.5 g/dL. It also gave a Ht (24 h) of 37.6%, a Lym (24 h) of 79.6% and an MCH (24 h) of 22 pg. It also gave an MCHC (24 h) of 33.3%, an MCV (24 h) of 66.1 fL and a Mono (24 h) of 6%. For the same compound, the Neu (24 h) was 13.6%, the PT (24 h) was 11.8 s and the Plat (24 h) was 110.9 x10_4/uL. For the same compound, the RBC (24 h) was 568.6 x10_4/ul, the Ret (24 h) was 9.9% and the WBC (24 h) was 98.7 x10_2/uL. For the same compound, the KIDNEY_L (24 h) was 0.9 g, the KIDNEY_R (24 h) was 0.9 g and the KIDNEY_TOTAL (24 h) was 1.8 g. The LIVER (24 h) was 9.4 g, the A/G (24 h) was 2.1 and the ALP (24 h) was 821.8 IU/L. The ALT (24 h) was 41 IU/L, the AST (24 h) was 66.6 IU/L and the BUN (24 h) was 18.2 mg/dL. It also gave a CRE (24 h) of 0.5 mg/dL, a Ca (24 h) of 10.8 mg/dL and a Cl (24 h) of 103.8 meq/L. For the same compound, the DBIL (24 h) was 0.004 mg/dL, the GLC (24 h) was 190.6 mg/dL and the IP (24 h) was 8.7 mg/dL. The K (24 h) was 4.7 meq/L, the LDH (24 h) was 97 IU/L and the Na (24 h) was 138.2 meq/L. It also gave a PL (24 h) of 144.2 mg/dL, an RALB (24 h) of 3.7 g/dL and a TBIL (24 h) of 0.4 mg/dL. It also gave a TC (24 h) of 80.6 mg/dL, a TG (24 h) of 77.2 mg/dL and a TP (24 h) of 5.5 g/dL. The gamma-GTP (24 h) was 1.4 IU/L.

From ChEMBL document CHEMBL3885861, “Open TG-GATES”
